This passage reports Kd results from article PMC11251196, “Actinium chelation and crystallization in a macromolecular scaffold” (Nature Communications, 2024).

Each structure is given as a SMILES string.

Assay type in all cases: binding
Experiment [1] addresses T1, siderocalin (Scn) (Homo sapiens, UniProt P80188).
T1 construct: gene LCN2
Description: tryptophan fluorescence quenching titration, pH […]; crystal structure at […] Å.

The target of experiment [2] is T1, siderocalin (Scn). The description is as above. The source holds these as a separate data set.
For experiment [3], the target named is T1, siderocalin (Scn). The experiment in a line: tryptophan fluorescence quenching titration of metal-free ligand, pH […].

T1 sequence (P80188 21-198): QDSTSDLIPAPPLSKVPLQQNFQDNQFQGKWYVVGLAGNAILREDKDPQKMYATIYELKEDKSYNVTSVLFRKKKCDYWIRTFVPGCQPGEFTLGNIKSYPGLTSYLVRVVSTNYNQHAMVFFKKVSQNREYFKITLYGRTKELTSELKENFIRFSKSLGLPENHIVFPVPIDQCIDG

Compound `O=C(NCCCN(CCCCN(CCCNC(=O)c1cccc(=O)n1O)C(=O)c1cccc(=O)n1[O-])C(=O)c1cccc(=O)n1[O-])c1cccc(=O)n1[O-].[Ac+3]` [[Ac^III(HOPO)]^1–] gave a Kd at siderocalin (Scn) [1] of 6 nM.
At siderocalin (Scn) [2], `O=C(NCCCN(CCCCN(CCCNC(=O)c1cccc(=O)n1O)C(=O)c1cccc(=O)n1[O-])C(=O)c1cccc(=O)n1[O-])c1cccc(=O)n1[O-].[La+3]` [[La^III(HOPO)]^1–] displayed a Kd of 20 nM.
On siderocalin (Scn) [3], `O=C(NCCCN(CCCCN(CCCNC(=O)c1cccc(=O)n1O)C(=O)c1cccc(=O)n1O)C(=O)c1cccc(=O)n1O)c1cccc(=O)n1O` [HOPO, 3,4,3-LI(1,2-HOPO)] yielded a Kd of 43 nM.

In general, Kd refers to the equilibrium constant for the complex coming apart.
